Source: the Kinase Knowledgebase extract (Sharma et al. 2016)

Molecular target: MAPK14 (human) (UniProt Q16539)
Assay: Inhibition of MAPK14 Kinase Activity

Chain of MAPK14 (human) (Q16539 whole entry, looked up): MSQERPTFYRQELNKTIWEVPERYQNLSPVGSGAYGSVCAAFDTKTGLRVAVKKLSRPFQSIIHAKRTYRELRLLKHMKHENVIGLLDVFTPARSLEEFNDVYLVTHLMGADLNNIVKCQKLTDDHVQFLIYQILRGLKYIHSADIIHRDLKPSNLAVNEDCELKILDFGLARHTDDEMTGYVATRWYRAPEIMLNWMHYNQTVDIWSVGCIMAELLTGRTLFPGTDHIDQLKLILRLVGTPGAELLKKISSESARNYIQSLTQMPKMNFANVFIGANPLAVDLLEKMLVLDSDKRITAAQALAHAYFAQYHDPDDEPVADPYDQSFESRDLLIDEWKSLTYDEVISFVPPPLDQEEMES

Row | Structure (SMILES) | IC50 | Ki
1 | CC(=O)NCc1nc(OCc2ccc(F)cc2F)c(Br)c(=O)n1C(C)C | 1380 nM | 675 nM
2 | CC(C)n1c(-c2ccc(C(N)=O)cc2)nc(OCc2ccc(F)cc2F)c(Cl)c1=O | 328 nM | 181 nM
3 | CC(C)n1c(NCCNC(=O)CO)nc(OCc2ccc(F)cc2F)c(Cl)c1=O | 22.1 nM | 10.2 nM
4 | CNC(=O)CCc1nc(OCc2ccc(F)cc2F)c(Cl)c(=O)n1C(C)C | 2430 nM | 1160 nM
5 | C=CCc1nc(OCc2ccc(F)cc2F)c(Cl)c(=O)n1C(C)C | 256 nM | 133 nM
6 | CC(=O)NCCOc1nc(OCc2ccc(F)cc2F)c(Cl)c(=O)n1C(C)C | 80.4 nM | 49.3 nM
7 | Cc1nc(OCc2ccc(F)cc2F)c(Cl)c(=O)n1C(C)C | 346 nM | 155 nM
8 | CC(C)n1cnc(OCc2ccc(F)cc2F)c(Br)c1=O | 53 nM | 28.3 nM
9 | CC(C)n1c(-c2cccc(C(N)=O)c2)nc(OCc2ccc(F)cc2F)c(Br)c1=O | 608 nM | 378 nM
10 | CC(C)n1c(NCCCNC(=O)C(C)(C)O)nc(OCc2ccc(F)cc2F)c(Br)c1=O | 23.8 nM | 12.7 nM
11 | CC(C)n1c(NCC(C)(C)O)nc(OCc2ccc(F)cc2F)c(Br)c1=O | 31.7 nM | 16.6 nM
12 | CC(C)n1c(CCCO)nc(OCc2ccc(F)cc2F)c(Cl)c1=O | 392 nM | 202 nM
13 | Cc1nc(OCc2ccc(F)cc2CNC(=O)NC2CCCCC2)c(Br)c(=O)n1C(C)C | 786 nM | 372 nM
14 | CC(C)n1c(N2CCC[C@@H]2CO)nc(OCc2ccc(F)cc2F)c(Br)c1=O | 29.8 nM | 15.7 nM
15 | CC(C)n1c(OCCCCO)nc(OCc2ccc(F)cc2F)c(Cl)c1=O | 139 nM | 68.5 nM
16 | CC(C)n1c(NCCNC(=O)CO)nc(OCc2ccc(F)cc2F)c(Br)c1=O | 14.2 nM | 6.58 nM
17 | CC(C)n1c(NCCNC(=O)C(C)(C)O)nc(OCc2ccc(F)cc2F)c(Cl)c1=O | 51.6 nM | 24.7 nM
18 | CC(C)n1c(OCC(N)=O)nc(OCc2ccc(F)cc2F)c(Br)c1=O | 270 nM | 132 nM
19 | CC(C)n1c(N2CCN(C(=O)C(C)(C)N)CC2)nc(OCc2ccc(F)cc2F)c(Br)c1=O | 531 nM | 222 nM

Row | Structure (SMILES) | IC50 | Ki
20 | CC(C)n1c(N2CC[C@@H](NC(=O)C(C)(C)O)C2)nc(OCc2ccc(F)cc2F)c(Cl)c1=O | 484 nM | 310 nM
21 | CC(=O)NCCCNc1nc(OCc2ccc(F)cc2F)c(Br)c(=O)n1C(C)C | 13 nM | 6.62 nM
22 | CC(C)n1c(NCc2ccc(F)cc2)nc(OCc2ccc(F)cc2F)c(Br)c1=O | 29.9 nM | 13.7 nM
23 | CC(C)n1c(CCCC(=O)O)nc(OCc2ccc(F)cc2F)c(Cl)c1=O | 497 nM | 247 nM
24 | CC(C)n1c(-c2ccccc2)nc(OCc2ccc(F)cc2F)cc1=O | 3180 nM | 1690 nM
25 | CC(C)n1c(N2CC[C@@H](NC(=O)CO)C2)nc(OCc2ccc(F)cc2F)c(Cl)c1=O | 372 nM | 238 nM
26 | CC(C)n1c(N2CC[C@H](N)C2)nc(OCc2ccc(F)cc2F)c(Br)c1=O | 818 nM | 435 nM
27 | CC(C)n1cnc(OCc2ccc(F)cc2F)c(Cl)c1=O | 296 nM | 148 nM
28 | CC(C)n1c(NCCNS(C)(=O)=O)nc(OCc2ccc(F)cc2F)c(Cl)c1=O | 22.3 nM | 10.3 nM
29 | CC(C)n1c(NCCNC(=O)C(C)(C)O)nc(OCc2ccc(F)cc2F)c(Br)c1=O | 17.2 nM | 8.14 nM
30 | CC(C)n1c(N2CCC(NC(=O)CN)C2)nc(OCc2ccc(F)cc2F)c(Br)c1=O (stereo not given) | 217 nM | 118 nM
31 | CC(=O)NCCNc1nc(OCc2ccc(F)cc2F)c(Cl)c(=O)n1C(C)C | 28.1 nM | 14.7 nM
32 | CC(C)n1c(-c2ccccc2)nc(OCc2ccc(F)cc2F)c(Cl)c1=O | 260 nM | 144 nM
33 | CC(C)n1c(-c2ccc(C(N)=O)cc2)nc(OCc2ccc(F)cc2F)c(Br)c1=O | 110 nM | 60.6 nM
34 | CC(C)n1c(OCCCC(=O)O)nc(OCc2ccc(F)cc2F)c(Cl)c1=O | 229 nM | 109 nM
35 | CC(C)n1c(NCCCNC(N)=O)nc(OCc2ccc(F)cc2F)c(Br)c1=O | 5 nM | 2.09 nM
36 | CC(C)n1c(OCCNS(C)(=O)=O)nc(OCc2ccc(F)cc2F)c(Cl)c1=O | 26.3 nM | 15.5 nM
37 | CC(C)n1c(N(C)CC(N)=O)nc(OCc2ccc(F)cc2F)c(Cl)c1=O | 1680 nM | 774 nM
38 | CC(=O)NCCCCc1nc(OCc2ccc(F)cc2F)c(Cl)c(=O)n1C(C)C | 334 nM | 159 nM

Second part, the compound after the results:

Row | IC50 | Ki | Structure (SMILES)
39 | 21.2 nM | 12.4 nM | CC(C)n1c(OCCNC(N)=O)nc(OCc2ccc(F)cc2F)c(Cl)c1=O
40 | 497 nM | 319 nM | CC(C)n1c(N2CC[C@@H](N)C2)nc(OCc2ccc(F)cc2F)c(Cl)c1=O
41 | 181 nM | 90.5 nM | CC(C)n1c(CCCCO)nc(OCc2ccc(F)cc2F)c(Cl)c1=O
42 | 7.2 nM | 3.32 nM | CC(C)n1c(NCCCNS(C)(=O)=O)nc(OCc2ccc(F)cc2F)c(Br)c1=O
43 | 18.5 nM | 9.47 nM | CC(C)n1c(OCCNS(C)(=O)=O)nc(OCc2ccc(F)cc2F)c(Br)c1=O
44 | 810 nM | 476 nM | CC(C)n1c(N2CC[C@@H](NC(=O)OCc3cccnc3)C2)nc(OCc2ccc(F)cc2F)c(Br)c1=O
45 | 600 nM | 278 nM | CC(C)n1c(CCCC(=O)NCCO)nc(OCc2ccc(F)cc2F)c(Br)c1=O
46 | 391 nM | 181 nM | CC(C)n1c(CCCC(N)=O)nc(OCc2ccc(F)cc2F)c(Br)c1=O
47 | 21.6 nM | 11.1 nM | CC(C)n1c(NC[C@@H](O)CO)nc(OCc2ccc(F)cc2F)c(Br)c1=O
48 | 19.6 nM | 10.1 nM | CC(C)n1c(NCCNC(N)=O)nc(OCc2ccc(F)cc2F)c(Cl)c1=O
49 | 380 nM | 174 nM | CCNC(=O)NCc1cc(F)ccc1COc1nc(C)n(C(C)C)c(=O)c1Cl
50 | 129 nM | 62.1 nM | CCNC(=O)NCc1cc(F)ccc1COc1nc(C)n(C(C)C)c(=O)c1Br
51 | 267 nM | 139 nM | CC(C)n1c(O)nc(OCc2ccc(F)cc2F)c(Cl)c1=O
52 | 119 nM | 61.6 nM | CC(C)n1c(N2CCCC(C(N)=O)C2)nc(OCc2ccc(F)cc2F)c(Br)c1=O (stereo not given)
53 | 131 nM | 71.6 nM | CCN[C@@H]1CCN(c2nc(OCc3ccc(F)cc3F)c(Br)c(=O)n2C(C)C)C1
54 | 2.6 nM | 0.713 nM | CC(C)n1c(OCCNC(N)=O)nc(OCc2ccc(F)cc2F)c(Br)c1=O
55 | 131 nM | 66.1 nM | CC(C)n1c(NCCC(C)(C)C)nc(OCc2ccc(F)cc2F)c(Br)c1=O
56 | 304 nM | 166 nM | CC(C)n1c(N2CCC(O)CC2)nc(OCc2ccc(F)cc2F)c(Br)c1=O
57 | 158 nM | 81 nM | CC(C)n1c(N2CCN(C(=O)CN)CC2)nc(OCc2ccc(F)cc2F)c(Br)c1=O
58 | 112 nM | 59.1 nM | CC(C)n1c(-c2ccccc2)nc(OCc2ccc(F)cc2F)c(Br)c1=O
59 | 864 nM | 555 nM | CC(C)n1c(N2CC[C@H](NC(=O)C(C)(C)O)C2)nc(OCc2ccc(F)cc2F)c(Cl)c1=O
60 | 150 nM | 62.2 nM | CC(C)n1c(N2CCC(N)C2)nc(OCc2ccc(F)cc2F)c(Br)c1=O (stereo not given)
